Laboratory results taken from ChEMBL document CHEMBL5316381, “Discovery of [1,2,3]Triazolo[4,5-c]quinoline Derivatives as a New Class of Ataxia-Telangiectasia Mutated Kinase Inhibitors” (ACS Med Chem Lett, 2023).
Active and inactive are the calls of the source. The calls are words filed in the database; no cut-off is given here.

Assays:
SW-620 [1] = assay: Radiosensitizing activity against human SW620 cells assessed as reduction in colony formation at 9 nM incubated after 14 days in the presence of 3 Gy irradiation by crystal violet staining based analysis; assay type: functional, cell-based; conditions: time 14.0 day
SW-620 [2] = assay: Radiosensitizing activity against human SW620 cells assessed as reduction in colony formation at 9 nM incubated after 14 days in the presence of 1.5 Gy irradiation by crystal violet staining based analysis; assay type: functional, cell-based; conditions: time 14.0 day
[3] = target: T1, Serine-protein kinase ATM (Homo sapiens, UniProt Q13315); assay: Inhibition of ATM (unknown origin) using GST-cMyc-p53 as substrate incubated for 30 mins in presence of Mg/ATP mix by HTRF-based analysis
T1 sequence (Q13315 whole entry): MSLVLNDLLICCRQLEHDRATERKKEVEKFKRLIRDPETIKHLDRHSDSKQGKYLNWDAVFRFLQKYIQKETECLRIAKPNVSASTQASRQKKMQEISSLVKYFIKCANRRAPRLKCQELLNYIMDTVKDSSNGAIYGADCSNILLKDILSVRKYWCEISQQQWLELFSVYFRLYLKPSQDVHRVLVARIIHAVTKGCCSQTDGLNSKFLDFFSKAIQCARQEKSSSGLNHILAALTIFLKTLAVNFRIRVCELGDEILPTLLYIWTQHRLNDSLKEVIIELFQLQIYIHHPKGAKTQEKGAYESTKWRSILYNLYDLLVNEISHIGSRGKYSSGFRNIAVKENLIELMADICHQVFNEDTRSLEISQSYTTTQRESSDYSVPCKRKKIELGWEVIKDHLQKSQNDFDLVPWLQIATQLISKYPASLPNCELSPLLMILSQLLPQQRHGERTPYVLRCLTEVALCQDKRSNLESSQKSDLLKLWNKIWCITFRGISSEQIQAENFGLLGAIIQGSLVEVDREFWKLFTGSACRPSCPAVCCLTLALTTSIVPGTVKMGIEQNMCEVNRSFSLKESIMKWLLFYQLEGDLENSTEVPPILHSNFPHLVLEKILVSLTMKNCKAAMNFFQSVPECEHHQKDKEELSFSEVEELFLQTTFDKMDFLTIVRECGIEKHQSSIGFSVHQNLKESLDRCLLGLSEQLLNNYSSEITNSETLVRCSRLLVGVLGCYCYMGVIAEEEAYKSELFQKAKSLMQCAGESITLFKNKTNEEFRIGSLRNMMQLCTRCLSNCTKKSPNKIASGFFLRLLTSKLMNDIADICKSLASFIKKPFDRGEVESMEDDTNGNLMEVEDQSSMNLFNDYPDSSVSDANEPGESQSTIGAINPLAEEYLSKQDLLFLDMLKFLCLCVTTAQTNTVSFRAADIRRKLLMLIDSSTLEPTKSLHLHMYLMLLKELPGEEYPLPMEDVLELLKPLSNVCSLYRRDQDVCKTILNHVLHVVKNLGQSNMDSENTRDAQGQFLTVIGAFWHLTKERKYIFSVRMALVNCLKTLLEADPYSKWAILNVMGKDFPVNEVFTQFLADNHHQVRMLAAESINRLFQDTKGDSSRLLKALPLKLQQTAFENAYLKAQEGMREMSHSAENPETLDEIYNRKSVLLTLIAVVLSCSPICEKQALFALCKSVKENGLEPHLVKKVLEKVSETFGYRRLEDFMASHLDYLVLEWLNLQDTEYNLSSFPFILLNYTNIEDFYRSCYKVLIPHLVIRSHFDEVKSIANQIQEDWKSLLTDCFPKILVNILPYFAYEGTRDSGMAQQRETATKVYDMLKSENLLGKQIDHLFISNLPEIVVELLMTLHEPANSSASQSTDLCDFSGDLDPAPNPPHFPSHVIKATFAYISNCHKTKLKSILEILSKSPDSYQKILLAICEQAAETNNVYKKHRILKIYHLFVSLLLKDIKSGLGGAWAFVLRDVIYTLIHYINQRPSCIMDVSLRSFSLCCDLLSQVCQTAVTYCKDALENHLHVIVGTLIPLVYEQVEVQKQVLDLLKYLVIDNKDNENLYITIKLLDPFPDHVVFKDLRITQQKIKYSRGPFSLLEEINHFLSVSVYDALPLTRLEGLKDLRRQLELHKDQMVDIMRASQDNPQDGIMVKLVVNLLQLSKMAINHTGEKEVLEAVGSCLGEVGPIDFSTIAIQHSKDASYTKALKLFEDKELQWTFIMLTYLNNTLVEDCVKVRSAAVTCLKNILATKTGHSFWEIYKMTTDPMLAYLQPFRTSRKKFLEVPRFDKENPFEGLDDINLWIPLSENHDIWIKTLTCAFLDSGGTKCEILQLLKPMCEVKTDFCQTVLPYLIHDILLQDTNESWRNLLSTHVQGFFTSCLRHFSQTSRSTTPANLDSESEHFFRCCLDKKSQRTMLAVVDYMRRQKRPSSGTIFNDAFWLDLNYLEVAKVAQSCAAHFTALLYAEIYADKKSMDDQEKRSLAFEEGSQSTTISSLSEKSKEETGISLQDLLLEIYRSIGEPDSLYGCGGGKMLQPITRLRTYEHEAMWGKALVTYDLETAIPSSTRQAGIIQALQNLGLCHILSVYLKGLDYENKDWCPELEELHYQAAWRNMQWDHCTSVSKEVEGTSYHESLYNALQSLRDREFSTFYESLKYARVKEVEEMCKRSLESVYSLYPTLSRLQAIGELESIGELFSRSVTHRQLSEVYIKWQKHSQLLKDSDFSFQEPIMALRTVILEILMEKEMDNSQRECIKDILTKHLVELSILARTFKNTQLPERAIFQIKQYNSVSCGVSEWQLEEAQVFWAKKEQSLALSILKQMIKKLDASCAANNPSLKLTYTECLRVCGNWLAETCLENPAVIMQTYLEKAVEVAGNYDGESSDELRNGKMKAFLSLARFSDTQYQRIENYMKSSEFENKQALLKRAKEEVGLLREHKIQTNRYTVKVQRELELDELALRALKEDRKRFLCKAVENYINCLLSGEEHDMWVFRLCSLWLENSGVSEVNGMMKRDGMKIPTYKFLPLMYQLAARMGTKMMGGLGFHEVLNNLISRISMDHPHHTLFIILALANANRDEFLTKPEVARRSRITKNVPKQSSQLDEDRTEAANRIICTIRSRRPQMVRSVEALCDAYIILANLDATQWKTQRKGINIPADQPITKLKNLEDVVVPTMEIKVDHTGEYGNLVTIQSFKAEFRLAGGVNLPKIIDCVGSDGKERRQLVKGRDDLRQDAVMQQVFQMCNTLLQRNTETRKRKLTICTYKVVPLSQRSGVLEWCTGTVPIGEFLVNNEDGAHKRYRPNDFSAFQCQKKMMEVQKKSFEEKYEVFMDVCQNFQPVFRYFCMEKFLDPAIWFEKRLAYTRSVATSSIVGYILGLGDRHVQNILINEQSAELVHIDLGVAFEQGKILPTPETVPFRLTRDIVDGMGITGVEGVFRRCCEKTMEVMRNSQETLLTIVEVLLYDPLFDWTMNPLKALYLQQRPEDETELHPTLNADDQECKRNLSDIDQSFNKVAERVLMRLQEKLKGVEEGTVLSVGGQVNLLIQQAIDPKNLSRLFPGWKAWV

[4] = target: PI3-kinase p110-alpha/p85-alpha (Homo sapiens, UniProt P42336); assay: Inhibition of human PI3K p110 alpha/p85 alpha using phosphatidylinositol-4, 5-bisphosphate as substrate incubated for 30 mins in the presence of Mg/ATP mix by HTRF-based analysis; assay type: protein-complex assay
[5] = target: Serine/threonine-protein kinase mTOR (Homo sapiens, UniProt P42345); assay: Inhibition of mTOR (unknown origin) incubated for 40 mins in the presence of Mn/ATP mix by scintillation counting analysis
[6] = target: PI3-kinase p110-delta/p85-alpha (Homo sapiens, UniProt O00329); assay: Inhibition of human PI3K p110 delta/p85 alpha using phosphatidylinositol-4, 5-bisphosphate as substrate incubated for 30 mins in the presence of Mg/ATP mix by HTRF-based analysis; assay type: protein-complex assay
SW-620 [7] = assay: Cell cycle arrest in human SW620 cells assessed as accumulation of cells at G2/M phase upto 100 nM incubated for 24 hrs by PI staining based flow cytometric analysis; assay type: functional
HCT-116 [8] = assay: Cell cycle arrest in human HCT-116 cells assessed as accumulation of cells at G2/M phase incubated for 24 hrs in presence of CPT-11 by PI staining based flow cytometric analysis; assay type: functional; conditions: dose 10-100 nM
SW-620 [9] = assay: Induction of apoptosis in human SW620 cells assessed as early apoptotic cells at 100 nM measured after 72 hrs in presence of CPT-11 by Annexin V-FITC staining based flow cytometric analysis (reference value: 1.06%); assay type: functional
SW-620 [10] = assay: Induction of apoptosis in human SW620 cells assessed as late apoptotic cells at 100 nM measured after 72 hrs in presence of CPT-11 by Annexin V-FITC staining based flow cytometric analysis (reference value: 5.75%); assay type: functional
SW-620 [11] = assay: Induction of apoptosis in human SW620 cells assessed as viable cells at 30 nM measured after 72 hrs in presence of CPT-11 by Annexin V-FITC staining based flow cytometric analysis (reference value: 87.36%); assay type: functional; conditions: read-out: Activity
SW-620 [12] = assay: Induction of apoptosis in human SW620 cells assessed as early apoptotic cells at 30 nM measured after 72 hrs in presence of CPT-11 by Annexin V-FITC staining based flow cytometric analysis (reference value: 1.06%); assay type: functional
SW-620 [13] = assay: Induction of apoptosis in human SW620 cells assessed as late apoptotic cells at 10 nM measured after 72 hrs in presence of CPT-11 by Annexin V-FITC staining based flow cytometric analysis (reference value: 5.75%); assay type: functional
SW-620 [14] = assay: Induction of apoptosis in human SW620 cells assessed as early apoptotic cells at 100 nM measured after 72 hrs by Annexin V-FITC staining based flow cytometric analysis (reference value: 1.06%); assay type: functional
SW-620 [15] = assay: Induction of apoptosis in human SW620 cells assessed as necrotic cells at 100 nM measured after 72 hrs by Annexin V-FITC staining based flow cytometric analysis (reference value: 5.83%); assay type: functional
HCT-116 [16] = assay: Induction of apoptosis in human HCT-116 cells assessed as late apoptotic cells at 1 uM measured after 72 hrs by Annexin V-FITC staining based flow cytometric analysis (reference value: 19.80%); assay type: functional
HCT-116 [17] = assay: Induction of apoptosis in human HCT-116 cells assessed as viable cells at 100 nM measured after 72 hrs in presence of CPT-11 by Annexin V-FITC staining based flow cytometric analysis (reference value: 73.74%); assay type: functional; conditions: read-out: Activity
HCT-116 [18] = assay: Induction of apoptosis in human HCT-116 cells assessed as early apoptotic cells at 100 nM measured after 72 hrs in presence of CPT-11 by Annexin V-FITC staining based flow cytometric analysis (reference value: 4.06%); assay type: functional
HCT-116 [19] = assay: Induction of apoptosis in human HCT-116 cells assessed as necrotic cells at 100 nM measured after 72 hrs in presence of CPT-11 by Annexin V-FITC staining based flow cytometric analysis (reference value: 2.41%); assay type: functional
HCT-116 [20] = assay: Induction of apoptosis in human HCT-116 cells assessed as early apoptotic cells at 30 nM measured after 72 hrs in presence of CPT-11 by Annexin V-FITC staining based flow cytometric analysis (reference value: 4.06%); assay type: functional
HCT-116 [21] = assay: Induction of apoptosis in human HCT-116 cells assessed as early apoptotic cells at 10 nM measured after 72 hrs in presence of CPT-11 by Annexin V-FITC staining based flow cytometric analysis (reference value: 4.06%); assay type: functional
HCT-116 [22] = assay: Induction of apoptosis in human HCT-116 cells assessed as viable cells at 100 nM measured after 72 hrs by Annexin V-FITC staining based flow cytometric analysis (reference value: 73.74%); assay type: functional; conditions: read-out: Activity
[23] = target: T1, Serine-protein kinase ATM; assay: Inhibition of ATM in human SW620 cells assessed as increase in gamma H2AX foci at 250 nM incubated for 24 hrs by confocal microscopic analysis; assay type: cell-based
[24] = target: T1, Serine-protein kinase ATM; assay: Inhibition of ATM phosphorylation in human SW620 cells with IR-induced DNA damage in the presence of 1.5 Gy irradiation by Western blot analysis; assay type: cell-based; conditions: dose 3-250 nM
[25] = target: Serine/threonine-protein kinase Chk2 (Homo sapiens) (UniProt O96017); assay: Inhibition of Chk2 phosphorylation in human SW620 cells with IR-induced DNA damage in the presence of 1.5 Gy irradiation by Western blot analysis; assay type: cell-based; conditions: dose 3-250 nM
Sequence of Serine/threonine-protein kinase Chk2 (Homo sapiens) (O96017 whole entry): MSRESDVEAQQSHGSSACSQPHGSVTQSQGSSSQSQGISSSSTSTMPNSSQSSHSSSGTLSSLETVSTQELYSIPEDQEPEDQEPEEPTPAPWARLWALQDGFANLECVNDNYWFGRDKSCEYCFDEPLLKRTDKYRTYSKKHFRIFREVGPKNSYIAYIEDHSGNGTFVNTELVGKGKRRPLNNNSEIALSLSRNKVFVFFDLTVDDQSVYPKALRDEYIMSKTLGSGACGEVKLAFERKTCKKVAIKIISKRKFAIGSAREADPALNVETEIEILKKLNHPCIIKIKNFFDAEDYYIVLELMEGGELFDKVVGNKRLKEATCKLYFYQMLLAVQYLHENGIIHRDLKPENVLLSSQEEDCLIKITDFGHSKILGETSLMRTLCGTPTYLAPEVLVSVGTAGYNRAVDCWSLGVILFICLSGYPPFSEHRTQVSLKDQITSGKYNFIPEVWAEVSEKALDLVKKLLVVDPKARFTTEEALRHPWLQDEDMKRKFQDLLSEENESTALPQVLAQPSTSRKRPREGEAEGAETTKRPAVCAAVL

[26] = Toxicity in BALB/c mouse xenografted with human SW620 cells assessed as lung damage at 5 mg/kg, ip administered once daily and measured after 23 days by H&E staining based microscopic analysis; assay type: organism-based, SW-620; conditions: in vivo, 552 h, time 23 day
[27] = Toxicity in BALB/c mouse xenografted with human SW620 cells assessed as kidney damage at 5 mg/kg, ip administered once daily and measured after 23 days by H&E staining based microscopic analysis; assay type: organism-based, SW-620; conditions: in vivo, 552 h, time 23 day
SW-620 [28] = assay: In vivo inhibition of ATM in BALB/c mouse model xenografted with human SW620 cells assessed as inhibition of ATM phosphorylation at 5 mg/kg, ip administered once daily and measured after 23 days in the presence of CPT-11 by Western blot analysis; assay type: functional, organism-based; conditions: time 23.0 day
[29] = target: T1, Serine-protein kinase ATM; assay: Inhibition of ATM in human SW620 cells assessed as increase in gamma H2AX foci accumulation at 50 to 250 nM incubated for 24 hrs in the presence of CPT-11 by confocal microscopic analysis; assay type: cell-based; conditions: dose 50-250 nM
SW-620 [30] = assay: In vivo inhibition of ATM in BALB/c mouse model xenografted with human SW620 cells assessed as inhibition of Chk2 phosphorylation at 5 mg/kg, ip administered once daily and measured after 23 days in the presence of CPT-11 by Western blot analysis; assay type: functional, organism-based; conditions: time 23.0 day

C[C@H](c1ccccc1)n1nnc2cnc3ccc(-c4ccc(OCCCN(C)C)nc4)cc3c21
Activity (SW-620 [1]): Active | Activity (SW-620 [2]): Active | IC50 [3]: 1 nM | IC50 [4]: > 10000 nM | IC50 [5]: 216 nM | IC50 [6]: 1030 nM | Activity (SW-620 [7]): inactive | Activity (HCT-116 [8]): Dose-Dependent Effect | Activity (SW-620 [9]): 7.18% | Activity (SW-620 [10]): 60.69% | viability at 0.03 µM (SW-620 [11]): 47.2% | Activity (SW-620 [12]): 6.95% | Activity (SW-620 [13]): 27.19% | Activity (SW-620 [14]): 1.88% | Activity (SW-620 [15]): 6.3% | Activity (HCT-116 [16]): 31.02% | viability at 0.1 µM (HCT-116 [17]): 22% | Activity (HCT-116 [18]): 2.77% | Activity (HCT-116 [19]): 7.04% | Activity (HCT-116 [20]): 2.23% | Activity (HCT-116 [21]): 1.1% | viability at 0.1 µM (HCT-116 [22]): 75.3% | inhibition [23]: Active | inhibition [24]: Dose-Dependent Effect | inhibition [25]: Dose-Dependent Effect | Activity [26]: Non-Toxic | Activity [27]: Non-Toxic | inhibition (SW-620 [28]): Active | inhibition [29]: Active | inhibition (SW-620 [30]): Active
